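Tested at 5 concentrations; 48 h exposure; 96-well plates; endpoints linearly interpolated, else capped at highest concentration. GI50 = concentration required for 50% inhibition of growth. TGI: concentration producing complete growth inhibition.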
Experiments:
Assay in all cases: NCI tumour cell line growth inhibition, 48 h
HCT-116 colon = tested on: HCT-116 colon
MDA-MB-231 breast = tested on: MDA-MB-231 breast
HS 578T breast = tested on: HS 578T breast
U251 CNS = tested on: U251 CNS
NCI-H460 lung = tested on: NCI-H460 lung
K-562 leukemia = tested on: K-562 leukemia
T-47D breast = tested on: T-47D breast
SF-539 CNS = tested on: SF-539 CNS
RPMI-8226 leukemia = tested on: RPMI-8226 leukemia
NCI/ADR-RES ovarian = tested on: NCI/ADR-RES ovarian
BT-549 breast = tested on: BT-549 breast
OVCAR-8 ovarian = tested on: OVCAR-8 ovarian
KM12 colon = tested on: KM12 colon
SN12C renal = tested on: SN12C renal
M14 melanoma = tested on: M14 melanoma
HCC-2998 colon = tested on: HCC-2998 colon
SK-MEL-2 melanoma = tested on: SK-MEL-2 melanoma
SNB-19 CNS = tested on: SNB-19 CNS
OVCAR-5 ovarian = tested on: OVCAR-5 ovarian
SK-MEL-5 melanoma = tested on: SK-MEL-5 melanoma
786-0 renal = tested on: 786-0 renal
PC-3 prostate = tested on: PC-3 prostate
HOP-62 NSCLC = tested on: HOP-62 NSCLC
DU-145 prostate = tested on: DU-145 prostate
HOP-92 NSCLC = tested on: HOP-92 NSCLC
COLO 205 colon = tested on: COLO 205 colon
UACC-62 melanoma = tested on: UACC-62 melanoma
SK-OV-3 ovarian = tested on: SK-OV-3 ovarian
LOX IMVI melanoma = tested on: LOX IMVI melanoma
SW-620 colon = tested on: SW-620 colon
CAKI-1 renal = tested on: CAKI-1 renal
NCI-H23 lung = tested on: NCI-H23 lung
UO-31 renal = tested on: UO-31 renal
A498 renal = tested on: A498 renal
UACC-257 melanoma = tested on: UACC-257 melanoma
TK-10 renal = tested on: TK-10 renal
MCF7 breast = tested on: MCF7 breast
EKVX NSCLC = tested on: EKVX NSCLC

Cc1cn2c(/C=N/NC3=NCCN3)c(-c3ccc(Cl)c([N+](=O)[O-])c3)nc2s1
GI50 (HCT-116 colon): 949 nM
TGI (HCT-116 colon): 1720 nM
GI50 (MDA-MB-231 breast): 778 nM
TGI (MDA-MB-231 breast): 1570 nM
GI50 (HS 578T breast): 1500 nM
TGI (HS 578T breast): 3970 nM
GI50 (U251 CNS): 947 nM
TGI (U251 CNS): 1750 nM
GI50 (NCI-H460 lung): 2340 nM
TGI (NCI-H460 lung): > 50000 nM
GI50 (K-562 leukemia): 1080 nM
TGI (K-562 leukemia): 2340 nM
GI50 (T-47D breast): 1750 nM
TGI (T-47D breast): > 50000 nM
GI50 (SF-539 CNS): 962 nM
TGI (SF-539 CNS): 1850 nM
GI50 (RPMI-8226 leukemia): 1270 nM
TGI (RPMI-8226 leukemia): > 50000 nM
GI50 (NCI/ADR-RES ovarian): 7750 nM
TGI (NCI/ADR-RES ovarian): 21500 nM
GI50 (BT-549 breast): 892 nM
TGI (BT-549 breast): 1770 nM
GI50 (OVCAR-8 ovarian): 1120 nM
TGI (OVCAR-8 ovarian): 2450 nM
GI50 (KM12 colon): 872 nM
TGI (KM12 colon): 1900 nM
GI50 (SN12C renal): 942 nM
TGI (SN12C renal): 1960 nM
GI50 (M14 melanoma): 1060 nM
TGI (M14 melanoma): 2170 nM
GI50 (HCC-2998 colon): 2120 nM
TGI (HCC-2998 colon): > 50000 nM
GI50 (SK-MEL-2 melanoma): 645 nM
TGI (SK-MEL-2 melanoma): 1810 nM
GI50 (SNB-19 CNS): 1480 nM
TGI (SNB-19 CNS): > 50000 nM
GI50 (OVCAR-5 ovarian): 6750 nM
TGI (OVCAR-5 ovarian): 17200 nM
GI50 (SK-MEL-5 melanoma): 989 nM
TGI (SK-MEL-5 melanoma): 2300 nM
GI50 (786-0 renal): 908 nM
TGI (786-0 renal): 2500 nM
GI50 (PC-3 prostate): 1650 nM
TGI (PC-3 prostate): 4560 nM
GI50 (HOP-62 NSCLC): 1710 nM
TGI (HOP-62 NSCLC): 7170 nM
GI50 (DU-145 prostate): 789 nM
TGI (DU-145 prostate): 1890 nM
GI50 (HOP-92 NSCLC): 776 nM
TGI (HOP-92 NSCLC): 2820 nM
GI50 (COLO 205 colon): 1430 nM
TGI (COLO 205 colon): > 50000 nM
GI50 (UACC-62 melanoma): 933 nM
TGI (UACC-62 melanoma): 1980 nM
GI50 (SK-OV-3 ovarian): 1530 nM
TGI (SK-OV-3 ovarian): 3680 nM
GI50 (LOX IMVI melanoma): 871 nM
TGI (LOX IMVI melanoma): 1600 nM
GI50 (SW-620 colon): 941 nM
TGI (SW-620 colon): 2460 nM
GI50 (CAKI-1 renal): 1980 nM
TGI (CAKI-1 renal): 10000 nM
GI50 (NCI-H23 lung): 5620 nM
TGI (NCI-H23 lung): 27000 nM
GI50 (UO-31 renal): 715 nM
TGI (UO-31 renal): 1440 nM
GI50 (A498 renal): 9400 nM
TGI (A498 renal): 21400 nM
GI50 (UACC-257 melanoma): 1600 nM
TGI (UACC-257 melanoma): 7240 nM
GI50 (TK-10 renal): 1050 nM
TGI (TK-10 renal): 2700 nM
GI50 (MCF7 breast): 3800 nM
TGI (MCF7 breast): > 50000 nM
GI50 (EKVX NSCLC): 3070 nM
TGI (EKVX NSCLC): 10800 nM

Source: PubChem BioAssay (NCI)
